The subject of the assay is whole cells. The assay can be described thus: Oxygen consumption rate (OCR) in whole cells, Seahorse XF-24 Flux Analyzer. To be noted: binned EC50 values; increase in oxygen consumption rate in whole cells. Format: cell-based. How it is done:
Biological activities of the compounds synthesized is determined by determining increase in oxygen consumption rate (OCR).
OCR is measured using a Seahorse XF-24 Flux Analyzer (Seahorse Biosciences, North Billerica, MA). NMuLi, C2C12, and L6 cells are seeded in a Seahorse 24-well tissue culture plate at a density of 3.5×10^4 cells/well, isolated cardiomyocytes at a density of 4×10^4 cells/well, and human primary fibroblasts at a density of 1.1×10^4 cells/well. The cells are then allowed to adhere for 24 h. […] Compounds are injected during the assay and OCR is measured using 2 min measurement periods.
2-3 wells are used per condition and averaged over three plates (n=6-9). Statistical significance is determined by two-way ANOVA with Bonferroni's posttest.

Each structure is given as a SMILES string. A value given as a limit tells only on which side of the number the result lay.

Broadly, the EC50 is the concentration that produces a half-maximal response.

For `Cc1ccccc1Nc1nc2nonc2nc1Nc1ccccc1C` [Compound 3a, N^5,N^6-di-o-tolyl-[1,2,5]oxadiazolo[3,4-b]pyrazine-5,6-diamine], the concentration for a half-maximal effect (EC50) is over 20 µM.
The compound `Fc1c(Nc2nc3nonc3nc2Nc2cccc(C(F)(F)F)c2F)cccc1C(F)(F)F` [Compound 3aa, N^5,N^6-bis(2-fluoro-3-(trifluoromethyl)phenyl)-[1,2,5]oxadiazolo[3,4-b]pyrazine-5,6-diamine] had an EC50 of under 5 µM.
With `Cc1cccc(Nc2nc3nonc3nc2Nc2cccc(C)c2)c1` [Compound 3b, N^5,N^6-di-m-tolyl-[1,2,5]oxadiazolo[3,4-b]pyrazine-5,6-diamine] the figure was under 5 µM.
Compound `Fc1cc(Nc2nc3nonc3nc2Nc2ccc(OC(F)(F)F)c(F)c2)ccc1OC(F)(F)F` [Compound 3bb, N^5,N^6-bis(3-fluoro-4-(trifluoromethoxy)phenyl)-[1,2,5]oxadiazolo[3,4-b]pyrazine-5,6-diamine] gave a concentration giving a half-maximal response (EC50) of under 5 µM.
In turn, `Cc1ccc(Nc2nc3nonc3nc2Nc2ccc(C)cc2)cc1` [Compound 3c, N^5,N^6-di-p-tolyl-[1,2,5]oxadiazolo[3,4-b]pyrazine-5,6-diamine] had a concentration giving a half-maximal response (EC50) of 5 to 20 µM.
The compound `Fc1cc(F)cc(Nc2nc3nonc3nc2Nc2cc(F)cc(F)c2)c1` [Compound 3cc, N^5,N^6-bis(3,5-difluorophenyl)-[1,2,5]oxadiazolo[3,4-b]pyrazine-5,6-diamine] registered an EC50 of under 5 µM.
Compound `COc1cccc(Nc2nc3nonc3nc2Nc2cccc(OC)c2)c1` [Compound 3e, N^5,N^6-bis(3-methoxyphenyl)-[1,2,5]oxadiazolo[3,4-b]pyrazine-5,6-diamine] registered a concentration for a half-maximal effect (EC50) of over 20 µM.
For the compound `c1ccc(Nc2nc3nonc3nc2Nc2ccccc2)cc1` [Compound 3ee, N^5,N^6-diphenyl-[1,2,5]oxadiazolo[3,4-b]pyrazine-5,6-diamine], the EC50 was under 5 µM.
As for `CCOc1cccc(Nc2nc3nonc3nc2Nc2cccc(OCC)c2)c1` [Compound 3h, N^5,N^6-bis(3-ethoxyphenyl)-[1,2,5]oxadiazolo[3,4-b]pyrazine-5,6-diamine], the EC50 was 5 to 20 µM.
With `FC(F)(F)Oc1ccccc1Nc1nc2nonc2nc1Nc1ccccc1OC(F)(F)F` [Compound 3k, N^5,N^6-bis(2-(trifluoromethoxy)phenyl)-[1,2,5]oxadiazolo[3,4-b]pyrazine-5,6-diamine] the figure was under 5 µM; with `FC(F)(F)Oc1cccc(Nc2nc3nonc3nc2Nc2cccc(OC(F)(F)F)c2)c1` [Compound 3l, N^5,N^6-bis(3-(trifluoromethoxy)phenyl)-[1,2,5]oxadiazolo[3,4-b]pyrazine-5,6-diamine], under 5 µM.
`Fc1cccc(Nc2nc3nonc3nc2Nc2cccc(F)c2)c1` [Compound 3n, N^5,N^6-bis(3-fluorophenyl)-[1,2,5]oxadiazolo[3,4-b]pyrazine-5,6-diamine] returned an EC50 of under 5 µM.
In turn, `FC(F)(F)c1ccccc1Nc1nc2nonc2nc1Nc1ccccc1C(F)(F)F` [Compound 3q, N^5,N^6-bis(2-(trifluoromethyl)phenyl)-[1,2,5]oxadiazolo[3,4-b]pyrazine-5,6-diamine] had an EC50 of under 5 µM.
`FC(F)(F)c1cccc(Nc2nc3nonc3nc2Nc2cccc(C(F)(F)F)c2)c1` [Compound 3r, N^5,N^6-bis(3-(trifluoromethyl)phenyl)-[1,2,5]oxadiazolo[3,4-b]pyrazine-5,6-diamine]: the EC50 was under 5 µM.
With `FC(F)(F)c1ccc(Nc2nc3nonc3nc2Nc2ccc(C(F)(F)F)cc2)cc1` [Compound 3s, N^5,N^6-bis(4-(trifluoromethyl)phenyl)-[1,2,5]oxadiazolo[3,4-b]pyrazine-5,6-diamine], the EC50 was under 5 µM.
Next, `COC(=O)c1ccc(Nc2nc3nonc3nc2Nc2ccc(C(=O)OC)cc2)cc1` [Compound 3t, Dimethyl 4,4′-([1,2,5]oxadiazolo[3,4-b]pyrazine-5,6-diylbis(azanediyl))dibenzoate]: under 5 µM.
For the compound `Fc1cc(C(F)(F)F)ccc1Nc1nc2nonc2nc1Nc1ccc(C(F)(F)F)cc1F` [Compound 3w, N^5,N^6-bis(2-fluoro-4-(trifluoromethyl)phenyl)-[1,2,5]oxadiazolo[3,4-b]pyrazine-5,6-diamine], the concentration giving a half-maximal response (EC50) is under 5 µM.
As to `Fc1cc(Nc2nc3nonc3nc2Nc2ccc(C(F)(F)F)c(F)c2)ccc1C(F)(F)F` [Compound 3x, N^5,N^6-bis(3-fluoro-4-(trifluoromethyl)phenyl)-[1,2,5]oxadiazolo[3,4-b]pyrazine-5,6-diamine], the EC50 was under 5 µM.
Compound `Fc1ccc(C(F)(F)F)cc1Nc1nc2nonc2nc1Nc1cc(C(F)(F)F)ccc1F` [Compound 3y, N^5,N^6-bis(2-fluoro-5-(trifluoromethyl)phenyl)-[1,2,5]oxadiazolo[3,4-b]pyrazine-5,6-diamine] showed an EC50 of under 5 µM.
With `FC(F)(F)c1cc(Nc2nc3nonc3nc2Nc2cc(C(F)(F)F)cc(C(F)(F)F)c2)cc(C(F)(F)F)c1` [Compound 3z, N^5,N^6-bis(3,5-bis(trifluoromethyl)phenyl)-[1,2,5]oxadiazolo[3,4-b]pyrazine-5,6-diamine], the EC50 is over 20 µM.
`Fc1ccccc1Nc1nc2nonc2nc1Nc1ccccc1` [Compound 4a, N^5-(2-fluorophenyl)-N^6-phenyl-[1,2,5]oxadiazolo[3,4-b]pyrazine-5,6-diamine] gave an EC50 of under 5 µM.
With `Fc1ccccc1Nc1nc2nonc2nc1Nc1cc(C(F)(F)F)cc(C(F)(F)F)c1` [Compound 4aa, N^5-(3,5-bis(trifluoromethyl)phenyl)-N^6-(2-fluorophenyl)-[1,2,5]oxadiazolo[3,4-b]pyrazine-5,6-diamine], the EC50 was under 5 µM.
With `Fc1ccccc1Nc1nc2nonc2nc1Nc1ccccn1` [Compound 4b, N^5-(2-fluorophenyl)-N^6-(pyridin-2-yl)-[1,2,5]oxadiazolo[3,4-b]pyrazine-5,6-diamine] the figure was over 20 µM; with `Fc1ccccc1Nc1nc2nonc2nc1Nc1cccc(C(F)(F)F)c1F` [Compound 4bb, N^5-(2-fluoro-3-(trifluoromethyl)phenyl)-N^6-(2-fluorophenyl)-[1,2,5]oxadiazolo[3,4-b]pyrazine-5,6-diamine], under 5 µM.
With `Fc1ccc(Nc2nc3nonc3nc2Nc2ccccc2F)cc1` [Compound 4d, N^5-(2-fluorophenyl)-N^6-(4-fluorophenyl)-[1,2,5]oxadiazolo[3,4-b]pyrazine-5,6-diamine] the figure was under 5 µM; with `Fc1ccccc1Nc1nc2nonc2nc1Nc1cccc(F)c1F` [Compound 4e, N^5-(2,3-difluorophenyl)-N^6-(2-fluorophenyl)-[1,2,5]oxadiazolo[3,4-b]pyrazine-5,6-diamine], under 5 µM.
With `Fc1ccc(Nc2nc3nonc3nc2Nc2ccccc2F)c(F)c1` [Compound 4f, N^5-(2,4-difluorophenyl)-N^6-(2-fluorophenyl)-[1,2,5]oxadiazolo[3,4-b]pyrazine-5,6-diamine] the figure was under 5 µM; with `Cc1cccc(Nc2nc3nonc3nc2Nc2ccccc2F)c1` [Compound 4h, N^5-(2-fluorophenyl)-N^6-(m-tolyl)-[1,2,5]oxadiazolo[3,4-b]pyrazine-5,6-diamine], under 5 µM.
As for `Cc1ccc(Nc2nc3nonc3nc2Nc2ccccc2F)cc1` [Compound 4i, N^5-(2-fluorophenyl)-N^6-(p-tolyl)-[1,2,5]oxadiazolo[3,4-b]pyrazine-5,6-diamine], the EC50 was 5 to 20 µM.
Next, `COc1cccc(Nc2nc3nonc3nc2Nc2ccccc2F)c1` [Compound 4k, N^5-(2-fluorophenyl)-N^6-(3-methoxyphenyl)-[1,2,5]oxadiazolo[3,4-b]pyrazine-5,6-diamine]: under 5 µM; `COc1ccc(Nc2nc3nonc3nc2Nc2ccccc2F)cc1` [Compound 4l, N^5-(2-fluorophenyl)-N^6-(4-methoxyphenyl)-[1,2,5]oxadiazolo[3,4-b]pyrazine-5,6-diamine]: under 5 µM; `CCOc1cccc(Nc2nc3nonc3nc2Nc2ccccc2F)c1` [Compound 4n, N^5-(3-ethoxyphenyl)-N^6-(2-fluorophenyl)-[1,2,5]oxadiazolo[3,4-b]pyrazine-5,6-diamine]: under 5 µM.
Take `CCOc1ccc(Nc2nc3nonc3nc2Nc2ccccc2F)cc1` [Compound 4o, N^5-(4-ethoxyphenyl)-N^6-(2-fluorophenyl)-[1,2,5]oxadiazolo[3,4-b]pyrazine-5,6-diamine]: the half-maximal effective concentration (EC50) was under 5 µM.
For `Fc1ccccc1Nc1nc2nonc2nc1Nc1ccccc1OC(F)(F)F` [Compound 4q, N^5-(2-fluorophenyl)-N^6-(2-(trifluoromethoxy)phenyl)-[1,2,5]oxadiazolo[3,4-b]pyrazine-5,6-diamine], the EC50 was under 5 µM.
Next, `Fc1ccccc1Nc1nc2nonc2nc1Nc1cccc(OC(F)(F)F)c1` [Compound 4r, N^5-(2-fluorophenyl)-N^6-(3-(trifluoromethoxy)phenyl)-[1,2,5]oxadiazolo[3,4-b]pyrazine-5,6-diamine]: 5 to 20 µM; `Fc1ccccc1Nc1nc2nonc2nc1Nc1ccc(OC(F)(F)F)cc1` [Compound 4s, N^5-(2-fluorophenyl)-N^6-(4-(trifluoromethoxy)phenyl)-[1,2,5]oxadiazolo[3,4-b]pyrazine-5,6-diamine]: under 5 µM.
With `O=C(Nc1ccc(Nc2nc3nonc3nc2Nc2ccccc2F)cc1)C(F)(F)F` [Compound 4t, 2,2,2-Trifluoro-N-(4-((6-((2-fluorophenyl)amino)-[1,2,5]oxadiazolo[3,4-b]pyrazin-5-yl)amino)phenyl)acetamide] the figure was under 5 µM.
Compound `Fc1ccccc1Nc1nc2nonc2nc1Nc1ccccc1C(F)(F)F` [Compound 4u, N^5-(2-fluorophenyl)-N^6-(2-(trifluoromethyl)phenyl)-[1,2,5]oxadiazolo[3,4-b]pyrazine-5,6-diamine] yielded an EC50 of under 5 µM.

These data come from patent US11896591B2, “Compositions and methods for preparing and using mitochondrial uncouplers” (UNIVERSITY OF VIRGINIA PATENT FOUNDATION, priority 2017, dated 2024).
